From US20240025906A1 (NEURON23, INC., priority 2022, published 2024)

What was measured:
[1] = test system: JAK1/TYK2 pSTAT5 (Tyr694/699) in THP-1 cell line; assay: IFNa-stimulated JAK1/TYK2 pSTAT5 (Tyr694/699) inhibition cellular assay, AlphaLISA; type: cell-based; details: Homo sapiens; THP-1 cells, IFNa-stimulated, AlphaLISA (Assay B); read-out: Cellular_THP1_IFNa-pSTATS_TYK2
Procedure, shortened: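 Compound dilutions were dispensed first, and HBSS-suspended THP-1 cells were added on top (final top concentration 10000 nM, 6-fold series). After 1 h at 37 °C, IFNa (100 ng/mL as added) was applied for 30 min. Cells were then lysed and pSTAT5 was quantified by AlphaLISA.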

[2] = biological target: T1, TYK2 JH2 (Homo sapiens, UniProt P29597); assay: TYK2 JH2 binding assay (KINOMEscan KdELECT competitive binding); details: TYK2 JH2 domain, KINOMEscan KdELECT (Assay A); read-out: Biochemical TYK2_DiscoverX_JH2_BND_Kd
T1 construct: purchased DiscoverX (KINOMEscan KdELECT service); host or cells: E. coli BL21-derived (T7 phage display) or HEK-293
Procedure, shortened: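 The assay measures displacement of DNA- or phage-tagged TYK2 pseudokinase domain from an affinity resin; compound binding lowers the amount captured, read by qPCR. Incubation lasts 1 h at room temperature.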

T1 sequence (P29597 589-875 limits assumed): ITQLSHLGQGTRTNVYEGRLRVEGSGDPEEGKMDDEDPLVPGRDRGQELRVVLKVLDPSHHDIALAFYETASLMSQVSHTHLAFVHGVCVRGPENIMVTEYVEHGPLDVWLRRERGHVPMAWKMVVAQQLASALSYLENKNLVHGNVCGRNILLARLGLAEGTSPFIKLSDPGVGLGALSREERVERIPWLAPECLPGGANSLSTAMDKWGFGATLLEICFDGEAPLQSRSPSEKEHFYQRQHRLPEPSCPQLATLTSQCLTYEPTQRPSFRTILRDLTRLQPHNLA

Row | Compound | IC50 [1] | Kd [2]
1 | [2H]C([2H])([2H])n1cc(C#Cc2cnc(NC)c3cnc(NC(=O)C4CC4)cc23)nc1C [Example 898, N-(5-((2-methyl-1-(methyl-d3)-1H-imidazol-4-yl)ethynyl)-8-(methylamino)-2,7-naphthyridin-3-yl)cyclopropanecarboxamide] | ≤ 500 nM | ≤ 100 nM
2 | CNc1ncc(C#Cc2cn3c(n2)CCCC3)c2cc(NC(=O)C3CC3)ncc12 [Example 899, N-(8-(methylamino)-5-((5,6,7,8-tetrahydroimidazo[1,2-a]pyridin-2-yl)ethynyl)-2,7-naphthyridin-3-yl)cyclopropanecarboxamide] | ≤ 500 nM | ≤ 100 nM
3 | [2H]C([2H])([2H])n1ccc(C#Cc2cnc(NC)c3cnc(NC(=O)C4CC4)cc23)n1 [Example 900, N-(5-((1-(methyl-d3)-1H-pyrazol-3-yl)ethynyl)-8-(methylamino)-2,7-naphthyridin-3-yl)cyclopropanecarboxamide] | ≤ 500 nM | ≤ 100 nM
4 | [2H]C([2H])([2H])n1nccc1C#Cc1cnc(NC)c2cnc(NC(=O)C3CC3)cc12 [Example 901, N-(5-((1-(methyl-d3)-1H-pyrazol-5-yl)ethynyl)-8-(methylamino)-2,7-naphthyridin-3-yl)cyclopropanecarboxamide] | ≤ 500 nM | ≤ 100 nM
5 | [2H]C([2H])([2H])n1c(C#Cc2cnc(NC)c3cnc(NC(=O)C4CC4)cc23)cnc1C [Example 902, N-(5-((2-methyl-1-(methyl-d3)-1H-imidazol-5-yl)ethynyl)-8-(methylamino)-2,7-naphthyridin-3-yl)cyclopropanecarboxamide] | ≤ 500 nM | ≤ 100 nM
6 | [2H]C([2H])([2H])Nc1ncc(C#Cc2cn(C)c(C)n2)c2cc(NC(=O)[C@H]3C[C@H]3C)ncc12 [Example 903, (1S,2R)-N-(5-((1,2-dimethyl-1H-imidazol-4-yl)ethynyl)-8-((methyl-d3)amino)-2,7-naphthyridin-3-yl)-2-methylcyclopropane-1-carboxamide] | ≤ 500 nM | ≤ 100 nM
7 | CNc1ncc(C#Cc2ccc(OC)c(C)n2)c2cc(NC(=O)C3CC3)ncc12 [Example 904, N-(5-((5-methoxy-6-methylpyridin-2-yl)ethynyl)-8-(methylamino)-2,7-naphthyridin-3-yl)cyclopropanecarboxamide] | ≤ 500 nM | ≤ 100 nM
8 | CNc1ncc(-c2nc3ccc(N4CCOCC4)cc3o2)c2cc(NC(=O)C3CC3)nnc12 [Example 913, N-(8-(methylamino)-5-(6-morpholinobenzo[d]oxazol-2-yl)pyrido[3,4-c]pyridazin-3-yl)cyclopropanecarboxamide] | ≤ 500 nM | ≤ 100 nM
9 | CNc1ncc(-c2nc3cc(N4CCOCC4)ccc3o2)c2cc(NC(=O)C3CC3)nnc12 [Example 914, N-(8-(methylamino)-5-(5-morpholinobenzo[d]oxazol-2-yl)pyrido[3,4-c]pyridazin-3-yl)cyclopropancarboxamide] | ≤ 500 nM | ≤ 100 nM
10 | CNc1ncc(C#Cc2ccc(OC3CN(C(C)=O)C3)cc2)c2cc(NC(=O)C3(F)CC3)nnc12 [Example 915, N-(5-((4-((1-acetylazetidin-3-yl)oxy)phenyl)ethynyl)-8-(methylamino)pyrido[3,4-c]pyridazin-3-yl)-1-fluorocyclopropane-1-carboxamide] | > 500 nM | ≤ 100 nM
11 | CNc1ncc(-c2nc3cc(N4CCC(F)CC4)ccc3o2)c2cc(NC(=O)C3CC3)ncc12 [Example 916, N-[5-[5-(4-fluoro-1-piperidyl)-1,3-benzoxazol-2-yl]-8-(methylamino)-2,7-naphthyridin-3-yl]cyclopropanecarboxamide] | ≤ 500 nM | ≤ 100 nM
12 | CNc1ncc(-c2nc3cc(N4CCCC4)ccc3o2)c2cc(NC(=O)C3CC3)ncc12 [Example 917, N-[8-(methylamino)-5-(5-pyrrolidin-1-yl-1,3-benzoxazol-2-yl)-2,7-naphthyridin-3-yl]cyclopropanecarboxamide] | ≤ 500 nM | ≤ 100 nM
13 | CNc1ncc(-c2nc3cc(N4CCOC(COC)C4)ccc3o2)c2cc(NC(=O)C3CC3)ncc12 (centres unmarked) [Example 918, N-(5-(5-(2-(methoxymethyl)morpholino)benzo[d]oxazol-2-yl)-8-(methylamino)-2,7-naphthyridin-3-yl)cyclopropanecarboxamide] | ≤ 500 nM | ≤ 100 nM
14 | CNc1ncc(-c2nc3cc(N4CCOC(C(F)(F)F)C4)ccc3o2)c2cc(NC(=O)C3CC3)ncc12 (centres unmarked) [Example 921, N-(8-(methylamino)-5-(5-(2-(trifluoromethyl)morpholino)benzo[d]oxazol-2-yl)-2,7-naphthyridin-3-yl)cyclopropanecarboxamide] | ≤ 500 nM | ≤ 100 nM
15 | CNc1ncc(-c2nc3cc(N4CCOC(C(C)(C)O)C4)ccc3o2)c2cc(NC(=O)C3CC3)ncc12 (centres unmarked) [Example 924, N-(5-(5-(2-(2-hydroxypropan-2-yl)morpholino)benzo[d]oxazol-2-yl)-8-(methylamino)-2,7-naphthyridin-3-yl)cyclopropanecarboxamide] | ≤ 500 nM | ≤ 100 nM
16 | CNc1ncc(-c2nc3cc(N4CC(C)(O)C4)ccc3o2)c2cc(NC(=O)C3CC3)ncc12 [Example 927, N-(5-(5-(3-hydroxy-3-methylazetidin-1-yl)benzo[d]oxazol-2-yl)-8-(methylamino)-2,7-naphthyridin-3-yl)cyclopropanecarboxamide] | ≤ 500 nM | ≤ 100 nM
17 | CNc1ncc(-c2nc3cnc(C)cc3o2)c2cc(NC(=O)C3CC3)ncc12 [Example 928, N-(8-(methylamino)-5-(6-methyloxazolo[4,5-c]pyridin-2-yl)-2,7-naphthyridin-3-yl)cyclopropanecarboxamide] | ≤ 500 nM | ≤ 100 nM
18 | CNc1ncc(-c2nc3cc(N4CCOCC4=O)ccc3o2)c2cc(NC(=O)C3CC3)ncc12 [Example 929, N-(8-(methylamino)-5-(5-(3-oxomorpholino)benzo[d]oxazol-2-yl)-2,7-naphthyridin-3-yl)cyclopropanecarboxamide] | ≤ 500 nM | ≤ 100 nM
19 | CNc1ncc(-c2nc3cc(OC)ccc3s2)c2cc(NC(=O)C3CC3)ncc12 [Example 930, N-(5-(5-methoxybenzo[d]thiazol-2-yl)-8-(methylamino)-2,7-naphthyridin-3-yl)cyclopropanecarboxamide] | ≤ 500 nM | ≤ 100 nM
20 | C=C(C)c1ccc2oc(-c3cnc(NC)c4cnc(NC(=O)C5CC5)cc34)nc2c1 [Example 931, N-(8-(methylamino)-5-(5-(prop-1-en-2-yl)benzo[d]oxazol-2-yl)-2,7-naphthyridin-3-yl)cyclopropanecarboxamide] | ≤ 500 nM | ≤ 100 nM
21 | CNc1ncc(-c2nc3cc(N4CC(C)(F)C4)ccc3o2)c2cc(NC(=O)C3CC3)ncc12 [Example 932, N-(5-(5-(3-fluoro-3-methylazetidin-1-yl)benzo[d]oxazol-2-yl)-8-(methylamino)-2,7-naphthyridin-3-yl)cyclopropanecarboxamide] | ≤ 500 nM | ≤ 100 nM
22 | CNc1ncc(-c2nc3ccc(OC)cc3s2)c2cc(NC(=O)C3CC3)ncc12 [Example 933, N-(5-(6-methoxybenzo[d]thiazol-2-yl)-8-(methylamino)-2,7-naphthyridin-3-yl)cyclopropanecarboxamide] | ≤ 500 nM | ≤ 100 nM
23 | CNc1ncc(-c2nc3cc(N4CC5(CCOCC5)C4)ccc3o2)c2cc(NC(=O)C3CC3)ncc12 [Example 934, N-(5-(5-(7-oxa-2-azaspiro[3.5]nonan-2-yl)benzo[d]oxazol-2-yl)-8-(methylamino)-2,7-napththyridin-3-yl)cyclopropanecarboxamide] | ≤ 500 nM | ≤ 100 nM
24 | CNc1ncc(-c2nc3cc(OC)cc(F)c3o2)c2cc(NC(=O)C3CC3)ncc12 [Example 937, N-(5-(7-fluoro-5-methoxybenzo[d]oxazol-2-yl)-8-(methylamino)-2,7-naphthyridin-3-yl)cyclopropanecarboxamide] | ≤ 500 nM | ≤ 100 nM
25 | CNc1ncc(-c2nc3cc(N4CCCC(F)(F)C4)ccc3o2)c2cc(NC(=O)C3CC3)ncc12 [Example 938, N-[5-[5-(3,3-difluoro-1-piperidyl)-1,3-benzoxazol-2-yl]-8-(methylamino)-2,7-naphthyridin-3-yl]cyclopropanecarboxamide] | ≤ 500 nM | ≤ 100 nM
26 | CNc1ncc(-c2nc3cc(-c4ccn(C)n4)ccc3o2)c2cc(NC(=O)C3CC3)ncc12 [Example 939, N-(5-(5-(1-methyl-1H-pyrazol-3-yl)benzo[d]oxazol-2-yl)-8-(methylamino)-2,7-naphthyridin-3-yl)cyclopropanecarboxamide] | ≤ 500 nM | ≤ 100 nM
27 | CNc1ncc(-c2nc3cc(-c4cnn(C)n4)ccc3o2)c2cc(NC(=O)C3CC3)ncc12 [Example 940, N-(5-(5-(2-methyl-2H-1,2,3-triazol-4-yl)benzo[d]oxazol-2-yl)-8-(methylamino)-2,7-naphthyridin-3-yl)cyclopropanecarboxamide] | ≤ 500 nM | ≤ 100 nM
28 | CNc1ncc(-c2nc3cc(OCC(C)(C)F)ccc3o2)c2cc(NC(=O)C3CC3)ncc12 [Example 941, N-[5-[5-(2-fluoro-2-methyl-propoxy)-1,3-benzoxazol-2-yl]-8-(methylamino)-2,7-naphthyridin-3-yl]cyclopropanecarboxamide] | ≤ 500 nM | ≤ 100 nM
